Test results from PubChem BioAssay (NCI).
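GI50 is the concentration that inhibits growth by half. TGI: total growth inhibition.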

Key:
Experiment in all cases: NCI-60 cell line screen, 384-well format
[1] = tested on: NCI-H226 lung
[2] = tested on: NCI-H23 lung
[3] = tested on: NCI-H322M lung
[4] = tested on: NCI-H460 NSCLC
[5] = tested on: NCI-H522 lung
[6] = tested on: NCI/ADR-RES ovarian
[7] = tested on: OVCAR-3 ovarian
[8] = tested on: OVCAR-4 ovarian
[9] = tested on: OVCAR-5 ovarian
[10] = tested on: OVCAR-8 ovarian
[11] = tested on: PC-3 prostate
[12] = tested on: RPMI-8226 leukemia
[13] = tested on: RXF 393 renal
[14] = tested on: SF-268 CNS
[15] = tested on: SF-295 CNS
[16] = tested on: SF-539 CNS
[17] = tested on: SK-MEL-2 melanoma
[18] = tested on: SK-MEL-28 melanoma
[19] = tested on: SK-MEL-5 melanoma
[20] = tested on: SK-OV-3 ovarian
[21] = tested on: SN12C renal
[22] = tested on: SNB-19 CNS
[23] = tested on: SNB-75 CNS
[24] = tested on: SR leukemia
[25] = tested on: SW-620 colon
[26] = tested on: T-47D breast
[27] = tested on: TK-10 renal
[28] = tested on: U251 glioblastoma
[29] = tested on: UACC-257 melanoma
[30] = tested on: UACC-62 melanoma
[31] = tested on: UO-31 renal

With `Cn1ncnc1[C@H]1c2n[nH]c(=O)c3cc(F)cc(c23)N[C@@H]1c1ccc(F)cc1` the TGI [1] was > 100 µM, the GI50 [2] was 0.56 µM and the TGI [2] was > 47.7 µM. For the same compound, the GI50 [3] was > 100 µM, the TGI [3] was > 100 µM and the GI50 [4] was 0.0169 µM. The TGI [4] was > 66.3 µM, the GI50 [5] was 44.6 µM and the TGI [5] was > 100 µM. The GI50 [6] was 17.4 µM, the TGI [6] was > 100 µM and the GI50 [7] was > 79.7 µM. The TGI [7] was > 100 µM, the GI50 [8] was > 84.8 µM and the TGI [8] was > 100 µM. For the same compound, the GI50 [9] was > 100 µM, the TGI [9] was > 100 µM and the GI50 [10] was 0.804 µM. For the same compound, the TGI [10] was > 100 µM, the GI50 [11] was > 100 µM and the TGI [11] was > 100 µM. For the same compound, the GI50 [12] was 6.39 µM, the TGI [12] was > 100 µM and the GI50 [13] was 3.29 µM. For the same compound, the TGI [13] was > 26.9 µM, the GI50 [14] was 1.39 µM and the GI50 [15] was 0.204 µM. For the same compound, the TGI [15] was 2.56 µM, the GI50 [16] was 1.02 µM and the TGI [16] was > 100 µM. The GI50 [17] was > 100 µM, the TGI [17] was > 100 µM and the GI50 [18] was > 90.3 µM. For the same compound, the TGI [18] was > 100 µM, the GI50 [19] was 41.1 µM and the TGI [19] was > 100 µM. For the same compound, the GI50 [20] was 3.82 µM, the TGI [20] was > 100 µM and the GI50 [21] was 3.72 µM. The TGI [21] was > 100 µM, the GI50 [22] was 10.9 µM and the TGI [22] was > 100 µM. For the same compound, the GI50 [23] was 6.38 µM, the TGI [23] was 29.5 µM and the TGI [24] was 0.0102 µM. The GI50 [25] was 3.66 µM, the TGI [25] was > 100 µM and the GI50 [26] was 10.9 µM. For the same compound, the TGI [26] was > 100 µM, the GI50 [27] was > 100 µM and the TGI [27] was > 100 µM. The GI50 [28] was 2.88 µM, the TGI [28] was > 100 µM and the GI50 [29] was > 100 µM. For the same compound, the TGI [29] was > 100 µM, the GI50 [30] was 14.7 µM and the TGI [30] was > 100 µM. The GI50 [31] was 26.9 µM and the TGI [31] was > 100 µM.
